# Laboratory results: patent US7858635B2 (priority 2005, dated 2010)
# Read-outs that look alike come from different tables or passages of the source.
# How the values were obtained:
# M1 muscarinic receptor = biological target: T1, M1 muscarinic receptor (Homo sapiens, UniProt P11229); test: Functional mobilization of intracellular calcium (FLIPR, Fluo-3), M1-CHO cells; format: cell-based; conditions: for Emax: read-out: M1 Efficacy; for M1 Activity: M1-CHO cells, calcium mobilization
# T1 construct: expressed in transfected cells; host or cells: CHO cells (M1-CHO, under zeocin and G418 selection)
# T1 sequence (P11229 1-460): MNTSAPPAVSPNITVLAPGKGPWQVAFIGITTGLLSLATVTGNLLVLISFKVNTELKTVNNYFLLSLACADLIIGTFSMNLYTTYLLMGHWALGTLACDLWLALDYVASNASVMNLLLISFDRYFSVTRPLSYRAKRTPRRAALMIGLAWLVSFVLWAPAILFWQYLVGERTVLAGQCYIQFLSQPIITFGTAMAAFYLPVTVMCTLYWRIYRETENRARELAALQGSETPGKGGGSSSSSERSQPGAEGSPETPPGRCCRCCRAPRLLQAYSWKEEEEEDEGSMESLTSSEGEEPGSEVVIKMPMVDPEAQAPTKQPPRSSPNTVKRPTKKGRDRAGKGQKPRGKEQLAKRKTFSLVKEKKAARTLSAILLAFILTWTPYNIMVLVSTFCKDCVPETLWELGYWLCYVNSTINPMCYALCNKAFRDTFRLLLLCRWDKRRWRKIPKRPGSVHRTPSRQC
# Summary of the method: (§1)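 CHO lines stably carrying the muscarinic subtype, dye-loaded with Fluo-3 at 37° C for 60-90 min, receive test compound in 0.5% DMSO. Agonist effects are read directly; antagonist effects against carbachol at EC80 after 15 min pre-incubation.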
# M4 muscarinic receptor = biological target: T2, M4 muscarinic receptor (Homo sapiens, UniProt P08173); test: Functional mobilization of intracellular calcium (FLIPR, Fluo-3), M4-CHO cells; format: cell-based; conditions: for Emax: read-out: M4 Efficacy; for M4 Activity: M4-CHO cells, calcium mobilization
# T2 construct: expressed in transfected cells; host or cells: CHO cells (M4-CHO, under puromycin, zeocin and blasticidin selection)
# T2 sequence (P08173 1-479): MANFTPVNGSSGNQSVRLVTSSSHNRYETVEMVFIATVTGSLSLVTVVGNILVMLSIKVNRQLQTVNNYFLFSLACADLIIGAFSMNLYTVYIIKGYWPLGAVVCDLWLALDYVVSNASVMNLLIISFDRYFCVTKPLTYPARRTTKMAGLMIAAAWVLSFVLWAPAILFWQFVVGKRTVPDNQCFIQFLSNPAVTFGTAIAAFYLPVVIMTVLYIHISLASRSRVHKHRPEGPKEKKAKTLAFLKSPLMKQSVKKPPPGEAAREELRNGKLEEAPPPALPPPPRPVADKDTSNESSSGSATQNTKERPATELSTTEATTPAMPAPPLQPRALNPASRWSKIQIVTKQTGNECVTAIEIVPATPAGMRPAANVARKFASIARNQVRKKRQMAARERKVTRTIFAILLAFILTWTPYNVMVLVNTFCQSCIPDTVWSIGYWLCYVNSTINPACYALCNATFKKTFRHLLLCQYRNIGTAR
# Summary of the method: as §1
# [1] = compound nos. 1-454, 100% efficacy is the maximum response obtained with the Carbachol control
SMILES,Emax (M1 muscarinic receptor; [1]) [%],M1 Activity (M1 muscarinic receptor; compound nos. 1-454),Emax (M4 muscarinic receptor; [1]) [%],M4 Activity (M4 muscarinic receptor; compound nos. 1-454),Emax (M1 muscarinic receptor) [%],Emax (M4 muscarinic receptor) [%]
CCOC(=O)N1CCC(N2CCC3(CC2)CN(C(C)=O)c2ccc(-c4cccc(F)c4)cc23)CC1 [compound 84],65 to 85,+++ (activity was measured to be less than or equal to 0.7 μM),55 to 70,++ (activity was measured to be between 0.1 μM and 4.0 μM),,
Clc1ccc2c(c1)C1(CCN(C3CC4CCC(C4)C3)CC1)CN2 (stereo not shown) [compound 85],65 to 85,+++ (activity was measured to be less than or equal to 0.7 μM),55 to 70,++ (activity was measured to be between 0.1 μM and 4.0 μM),,
"CCON=C1CCC(N2CCC3(CC2)CN(C(C)=O)c2ccc(F)cc23)CC1 (stereo not shown) [compound 86, 1-(1′-(4-(ethoxyimino)cyclohexyl)-5-fluorospiro[indoline-3,4′-piperidine]-1-yl)ethanone]",65 to 85,+++ (activity was measured to be less than or equal to 0.7 μM),< 55,+ (activity was measured to be greater than or equal to 4.0 μM),,
O=C(C1CC1)N1CC2(CCN(C3CC4CCC(C3)N4C(=O)O[C@@H]3CCOC3)CC2)c2cc(F)ccc21 (stereo partly shown) [compound 87],65 to 85,+++ (activity was measured to be less than or equal to 0.7 μM),< 55,+ (activity was measured to be greater than or equal to 4.0 μM),,
CCOC(=O)N1C2CCC1CC(N1CCC3(CC1)CN(C(=O)c1ccno1)c1ccc(F)cc13)C2 (stereo not shown) [compound 88],65 to 85,+++ (activity was measured to be less than or equal to 0.7 μM),< 55,++ (activity was measured to be between 0.1 μM and 4.0 μM),,
CCOC(=O)N1C2CCC1CC(N1CCC3(CC1)CN(S(=O)(=O)c1c(C)noc1C)c1ccc(F)cc13)C2 (stereo not shown) [compound 89],65 to 85,+++ (activity was measured to be less than or equal to 0.7 μM),< 55,++ (activity was measured to be between 0.1 μM and 4.0 μM),,
CCOC(=O)N1C2CCC1CC(N1CCC3(CC1)CN(C(=O)OCCOC)c1ccc(F)cc13)C2 (stereo not shown) [compound 90],65 to 85,++ (activity was measured to be between 0.7 μM and 3.0 μM),< 55,+ (activity was measured to be greater than or equal to 4.0 μM),,
CCCOC(=O)N1CCC(N2CCC3(CC2)CN(C(=O)N(C)C)c2ccc(F)cc23)CC1 [compound 91],65 to 85,+++ (activity was measured to be less than or equal to 0.7 μM),< 55,++ (activity was measured to be between 0.1 μM and 4.0 μM),,
CCOC(=O)N1CCC(N2CCC3(CC2)CN(C(C)=O)c2ccc(C)cc23)CC1 [compound 92],65 to 85,+++ (activity was measured to be less than or equal to 0.7 μM),< 55,++ (activity was measured to be between 0.1 μM and 4.0 μM),,
O=C(O[C@@H]1CCOC1)N1CC2(CCN(C3CC4CCC(C3)N4C(=O)O[C@H]3CCOC3)CC2)c2cc(F)ccc21 (stereo partly shown) [compound 93],< 65,++ (activity was measured to be between 0.7 μM and 3.0 μM),< 55,++ (activity was measured to be between 0.1 μM and 4.0 μM),,
CC(=O)N1CC2(CCN(C3CC4CCC(C3)N4C(=O)OC(C)C)CC2)c2cc(F)ccc21 (stereo not shown) [compound 94],< 65,+++ (activity was measured to be less than or equal to 0.7 μM),< 55,++ (activity was measured to be between 0.1 μM and 4.0 μM),,
COCCOC(=O)N1C2CCC1CC(N1CCC3(CCc4ccccc43)CC1)C2 (stereo not shown) [compound 95],65 to 85,+++ (activity was measured to be less than or equal to 0.7 μM),< 55,++ (activity was measured to be between 0.1 μM and 4.0 μM),,
COC(=O)N1CC2(CCN(C3CC4CCC(C3)N4C(=O)O[C@H]3CCOC3)CC2)c2cc(F)ccc21 (stereo partly shown) [compound 96],65 to 85,++ (activity was measured to be between 0.7 μM and 3.0 μM),< 55,+ (activity was measured to be greater than or equal to 4.0 μM),,
COC(=O)N1CC2(CCN(C3CC4CCC(C3)N4C(=O)OC(C)C)CC2)c2cc(F)ccc21 (stereo not shown) [compound 97],65 to 85,+++ (activity was measured to be less than or equal to 0.7 μM),< 55,+ (activity was measured to be greater than or equal to 4.0 μM),,
CCCOC(=O)N1CCC(CN2CCC3(CC2)CN(C(C)=O)c2ccc(F)cc23)CC1 [compound 98],65 to 85,+++ (activity was measured to be less than or equal to 0.7 μM),< 55,++ (activity was measured to be between 0.1 μM and 4.0 μM),,
CCOC(=O)N1C2CCC1CC(N1CCC3(CC1)COc1ccc(Cl)cc13)C2 (stereo not shown) [compound 99],< 65,+++ (activity was measured to be less than or equal to 0.7 μM),< 55,+ (activity was measured to be greater than or equal to 4.0 μM),,
COc1ccc(OC(=O)N2C3CCC2CC(N2CCC4(CC2)COc2ccc(F)cc24)C3)cc1 (stereo not shown) [compound 100],,+++ (activity was measured to be less than or equal to 0.7 μM),,++ (activity was measured to be between 0.1 μM and 4.0 μM),65 to 85,55 to 70
CC#CCOC(=O)N1CCC(N2CCC3(CC2)CN(C(C)=O)c2ccc(F)cc23)CC1 [compound 102],65 to 85,+++ (activity was measured to be less than or equal to 0.7 μM),55 to 70,++ (activity was measured to be between 0.1 μM and 4.0 μM),,
CCOC(=O)N1C2CCC1CC(N1CCC3(CC1)CN(S(C)(=O)=O)c1ccc(F)cc13)C2 (stereo not shown) [compound 103],65 to 85,+++ (activity was measured to be less than or equal to 0.7 μM),< 55,++ (activity was measured to be between 0.1 μM and 4.0 μM),,
O=C1CC2(CCN(C[C@H]3C[C@H]4C=C[C@H]3C4)CC2)c2ccccc21 [compound 104],65 to 85,+++ (activity was measured to be less than or equal to 0.7 μM),< 55,+ (activity was measured to be greater than or equal to 4.0 μM),,
CCOC(=O)N1CCC(N2CCC3(CC2)CN(C(C)=O)c2ccc(-c4ccncc4)cc23)CC1 [compound 105],< 65,++ (activity was measured to be between 0.7 μM and 3.0 μM),< 55,+ (activity was measured to be greater than or equal to 4.0 μM),,
COCCOC(=O)N1C2CCC1CC(N1CCC3(CC1)CN(C(=O)OC1CCC1)c1ccc(F)cc13)C2 (stereo not shown) [compound 106],65 to 85,+++ (activity was measured to be less than or equal to 0.7 μM),< 55,++ (activity was measured to be between 0.1 μM and 4.0 μM),,
CCOC(=O)N1CCC(CN2CCC3(CC2)COc2ccc(F)cc23)CC1 [compound 107],65 to 85,+++ (activity was measured to be less than or equal to 0.7 μM),< 55,+ (activity was measured to be greater than or equal to 4.0 μM),,
CC(C)OC(=O)N1C2CCC1CC(N1CCC3(CC1)CN(C(=O)N(C)C)c1ccc(F)cc13)C2 (stereo not shown) [compound 108],65 to 85,+++ (activity was measured to be less than or equal to 0.7 μM),< 55,++ (activity was measured to be between 0.1 μM and 4.0 μM),,
CCOC(=O)N1C2CCC1CC(N1CCC3(CC1)CNc1ccc(C)cc13)C2 (stereo not shown) [compound 109],65 to 85,+++ (activity was measured to be less than or equal to 0.7 μM),< 55,++ (activity was measured to be between 0.1 μM and 4.0 μM),,
